Assay results taken from patent US20110105474A1, “HETEROCYCLIC DERIVATIVES AS HDAC INHIBITORS” (DAC S.r.l., priority 2008, published 2011).
Structures can show the parent of a compound that is named as a salt.

What was measured:
Format in all cases: cell-based
[1] = system: K562 cells; experiment: Cell growth, CellTiter-Glo Luminescent Cell Viability Assay, K562; details: Homo sapiens, 72 h incubation
Description: (§1) CellTiter-Glo® Luminescent Cell Viability Assay (Promega) is a homogeneous method of determining the number of viable cells in culture based on quantitation of the present ATP, which indicates the presence of metabolically active cells. The homogeneous assay procedure involves addition of a single reagent (CellTiter-Glo®Reagent) directly to the cells, which leads to cell lysis and generation of a luminescent signal proportional to the amount of the ATP and the number of cells present in culture. The assay relies on the properties of a proprietary thermostable luciferase (Ultra-Glo® recombinant luciferase), which generates a luminescent signal.
(§2) K562, A549 and HCT-116 cells, in exponential growth, were incubated for 72 h with different concentrations of the inhibitors. After 72 h, a volume of CellTiter-Glo® Reagent equal to the volume of cell culture medium was added. The content was mixed for 2 min to induce cell lysis. The luminescence was recorded after further 10 min at RT in order to obtain a stabilized luminescent signal.
(§3) The IC50 was calculated using GraphPad Software.
(§4) IC50 results were allocated to one of 3 ranges as follows: Range A: IC50≦1.0 μM; Range B: from 1.0 to 3.0 μM; Range C: IC50≧3.0 μM.

[2] = system: HCT-116 cells; experiment: Cell growth, CellTiter-Glo Luminescent Cell Viability Assay, HCT-116; details: Homo sapiens, 72 h incubation, read-out: IC50 HCT116
Description: as §1, §2, §3, §4

[3] = system: A549 cells; experiment: Cell growth, CellTiter-Glo Luminescent Cell Viability Assay, A549; details: Homo sapiens, 72 h incubation
Description: as §1, §2, §3, §4

Row | IC50 [1] [nM] | IC50 [2] [nM] | IC50 [3] [nM] | SMILES
1 | ≤ 1000 | ≤ 1000 | ≤ 1000 | O=C(/C=C/c1cccc(/C=C/C(=O)N2CCCC(c3ccccc3)C2)n1)NO (racemic) [Example 25, (±)-(E)-N-Hydroxy-3-{6-[(E)-3-oxo-3-(3-phenyl-piperidin-1-yl)-propenyl]-pyridin-2-yl}-acrylamide hydrochloride]
2 | 1000 to 3000 | 1000 to 3000 | ≥ 3000 | O=C(/C=C/c1cccc(/C=C/C(=O)N2CCNC(c3ccccc3)C2)n1)NO (racemic) [Example 33, (±)-(E)-N-Hydroxy-3-{6-[(E)-3-oxo-3-(3-phenyl-piperazin-1-yl)-propenyl]-pyridin-2-yl}-acrylamide hydrochloride]
3 | ≤ 1000 | 1000 to 3000 | ≤ 1000 | Cc1ccccc1C1CCCN(C(=O)/C=C/c2cccc(/C=C/C(=O)NO)n2)C1 (racemic) [Example 42, (±)-(E)-N-Hydroxy-3-{6-[(E)-3-oxo-3-(3-o-tolyl-piperidin-1-yl)-propenyl]-pyridin-2-yl}-acrylamide hydrochloride]
4 | ≤ 1000 | ≤ 1000 | ≤ 1000 | Cc1cccc(C2CCCN(C(=O)/C=C/c3cccc(/C=C/C(=O)NO)n3)C2)c1 (racemic) [Example 43, (±)-(E)-N-Hydroxy-3-{6-[(E)-3-oxo-3-(3-m-tolyl-piperidin-1-yl)-propenyl]-pyridin-2-yl}-acrylamide hydrochloride]
5 | ≤ 1000 | ≤ 1000 | 1000 to 3000 | O=C(/C=C/c1cccc(/C=C/C(=O)N2CCCC(c3cccc4ccccc34)C2)n1)NO (racemic) [Example 44, (±)-(E)-N-Hydroxy-3-{6-[(E)-3-(3-naphthalen-1-yl-piperidin-1-yl)-3-oxo-propenyl]-pyridin-2-yl}-acrylamide hydrochloride]
6 | ≤ 1000 | ≤ 1000 | 1000 to 3000 | Cc1ccc(C2CCCN(C(=O)/C=C/c3cccc(/C=C/C(=O)NO)n3)C2)cc1 (racemic) [Example 46, (±)-(E)-N-Hydroxy-3-{6-[(E)-3-oxo-3-(3-p-tolyl-piperidin-1-yl)-propenyl]-pyridin-2-yl}-acrylamide hydrochloride]
7 | ≤ 1000 | ≤ 1000 | ≤ 1000 | O=C(/C=C/c1cccc(/C=C/C(=O)N2CCCC(c3ccc4ccccc4c3)C2)n1)NO (racemic) [Example 47, (±)-(E)-N-Hydroxy-3-{6-[(E)-3-(3-naphthalen-2-yl-piperidin-1-yl)-3-oxo-propenyl]-pyridin-2-yl}-acrylamide hydrochloride]
8 | ≤ 1000 | ≤ 1000 | 1000 to 3000 | O=C(/C=C/c1cccc(/C=C/C(=O)N2CCCC(c3ccc(F)cc3)C2)n1)NO (racemic) [Example 48, (±)-(E)-3-(6-{(E)-3-[3-(4-Fluoro-phenyl)-piperidin-1-yl]-3-oxo-propenyl}-pyridin-2-yl)-N-hydroxy-acrylamide hydrochloride]
9 | 1000 to 3000 | 1000 to 3000 | ≥ 3000 | O=C(/C=C/c1cccc(/C=C/C(=O)N2CCC(c3ccccc3)C2)n1)NO (racemic) [Example 52, (±)-(E)-N-Hydroxy-3-{6-[(E)-3-oxo-3-(3-phenyl-pyrrolidin-1-yl)-propenyl]-pyridin-2-yl}-acrylamide hydrochloride]
10 | ≤ 1000 | ≤ 1000 | 1000 to 3000 | O=C(/C=C/c1cccc(/C=C/C(=O)N2CCCCC2c2ccccc2)n1)NO (racemic) [Example 53, (±)-(E)-N-Hydroxy-3-{6-[(E)-3-oxo-3-(2-phenyl-piperidin-1-yl)-propenyl]-pyridin-2-yl}-acrylamide hydrochloride]
11 | ≤ 1000 | ≤ 1000 | 1000 to 3000 | O=C(/C=C/c1cccc(/C=C/C(=O)N2CCCC(c3ccccc3)CC2)n1)NO (racemic) [Example 54, (±)-(E)-N-Hydroxy-3-{6-[(E)-3-oxo-3-(4-phenyl-azepan-1-yl)-propenyl]-pyridin-2-yl}-acrylamide hydrochloride]
12 | ≤ 1000 | ≤ 1000 | 1000 to 3000 | CN1CCN(C(=O)/C=C/c2cccc(/C=C/C(=O)NO)n2)CC1c1ccccc1 (racemic) [Example 63, (±)-(E)-N-Hydroxy-3-{6-[(E)-3-(4-methyl-3-phenyl-piperazin-1-yl)-3-oxo-propenyl]-pyridin-2-yl}-acrylamide hydrochloride]
13 | ≤ 1000 | ≤ 1000 | ≤ 1000 | CCN1CCN(C(=O)/C=C/c2cccc(/C=C/C(=O)NO)n2)CC1c1ccccc1 (racemic) [Example 64, (±)-(E)-3-{6-[(E)-3-(4-Ethyl-3-phenyl-piperazin-1-yl)-3-oxo-propenyl]-pyridin-2-yl}-N-hydroxy-acrylamide hydrochloride]
14 | 1000 to 3000 | 1000 to 3000 | 1000 to 3000 | O=C(/C=C/c1cccc(/C=C/C(=O)N2CCN(Cc3ccccc3)C(c3ccccc3)C2)n1)NO (racemic) [Example 65, (±)-(E)-3-{6-[(E)-3-(4-Benzyl-3-phenyl-piperazin-1-yl)-3-oxo-propenyl]-pyridin-2-yl}-N-hydroxy-acrylamide hydrochloride]
15 | ≥ 3000 | ≥ 3000 | ≥ 3000 | CC(=O)N1CCN(C(=O)/C=C/c2cccc(/C=C/C(=O)NO)n2)CC1c1ccccc1 (racemic) [Example 66, (±)-(E)-3-{6-[(E)-3-(4-Acetyl-3-phenyl-piperazin-1-yl)-3-oxo-propenyl]-pyridin-2-yl}-N-hydroxy-acrylamide hydrochloride]
16 | ≤ 1000 | ≤ 1000 | 1000 to 3000 | COc1ccccc1C1CCCN(C(=O)/C=C/c2cccc(/C=C/C(=O)NO)n2)C1 (racemic) [Example 67, (±)-(E)-N-Hydroxy-3-(6-{(E)-3-[3-(2-methoxy-phenyl)-piperidin-1-yl]-3-oxo-propenyl}-pyridin-2-yl)-acrylamide hydrochloride]
17 | ≤ 1000 | ≤ 1000 | ≤ 1000 | COc1cccc(C2CCCN(C(=O)/C=C/c3cccc(/C=C/C(=O)NO)n3)C2)c1 (racemic) [Example 68, (±)-(E)-N-Hydroxy-3-(6-{(E)-3-[3-(3-methoxy-phenyl)-piperidin-1-yl]-3-oxo-propenyl}-pyridin-2-yl)-acrylamide hydrochloride]
18 | ≤ 1000 | ≤ 1000 | ≤ 1000 | COc1ccc(C2CCCN(C(=O)/C=C/c3cccc(/C=C/C(=O)NO)n3)C2)cc1 (racemic) [Example 69, (±)-(E)-N-Hydroxy-3-(6-{(E)-3-[3-(4-methoxy-phenyl)-piperidin-1-yl]-3-oxo-propenyl}-pyridin-2-yl)-acrylamide hydrochloride]
19 | ≤ 1000 | ≤ 1000 | ≤ 1000 | O=C(/C=C/c1cccc(/C=C/C(=O)N2CCCC(c3ccccc3C(F)(F)F)C2)n1)NO (racemic) [Example 70, (±)-(E)-N-Hydroxy-3-(6-{(E)-3-oxo-3-[3-(2-trifluoromethyl-phenyl)-piperidin-1-yl]-propenyl}-pyridin-2-yl)-acrylamide hydrochloride]
20 | ≤ 1000 | ≤ 1000 | 1000 to 3000 | O=C(/C=C/c1cccc(/C=C/C(=O)N2CCCC(c3cccc(C(F)(F)F)c3)C2)n1)NO (racemic) [Example 71, (±)-(E)-N-Hydroxy-3-(6-{(E)-3-oxo-3-[3-(3-trifluoromethyl-phenyl)-piperidin-1-yl]-propenyl}-pyridin-2-yl)-acrylamide hydrochloride]
21 | ≤ 1000 | 1000 to 3000 | 1000 to 3000 | O=C(/C=C/c1cccc(/C=C/C(=O)N2CCCC(c3ccc(C(F)(F)F)cc3)C2)n1)NO (racemic) [Example 72, (±)-(E)-N-Hydroxy-3-(6-{(E)-3-oxo-3-[3-(4-trifluoromethyl-phenyl)-piperidin-1-yl]-propenyl}-pyridin-2-yl)-acrylamide hydrochloride]
22 | ≥ 3000 | ≥ 3000 | ≥ 3000 | Cc1cccc(C2CCCN(C(=O)/C=C/c3cccc(/C=C/C(=O)NO)c3)C2)c1 (racemic) [Example 78, (±)-(E)-N-Hydroxy-3-{3-[(E)-3-oxo-3-(3-m-tolyl-piperidin-1-yl)-propenyl]-phenyl}-acrylamide]
23 | ≥ 3000 | ≥ 3000 | ≥ 3000 | Cc1ccccc1C1CCCN(C(=O)/C=C/c2cccc(/C=C/C(=O)NO)c2)C1 (racemic) [Example 79, (±)-(E)-N-Hydroxy-3-{3-[(E)-3-oxo-3-(3-o-tolyl-piperidin-1-yl)-propenyl]-phenyl}-acrylamide]
24 | ≥ 3000 | ≥ 3000 | ≥ 3000 | Cc1ccc(C2CCCN(C(=O)/C=C/c3cccc(/C=C/C(=O)NO)c3)C2)cc1 (racemic) [Example 80, (±)-(E)-N-Hydroxy-3-{3-[(E)-3-oxo-3-(3-p-tolyl-piperidin-1-yl)-propenyl]-phenyl}-acrylamide]
25 | ≥ 3000 | ≥ 3000 | ≥ 3000 | O=C(/C=C/c1cccc(/C=C/C(=O)N2CCCC(c3ccccc3)C2)c1)NO (racemic) [Example 83, (±)-(E)-N-Hydroxy-3-{3-[(E)-3-oxo-3-(3-phenyl-piperidin-1-yl)-propenyl]-phenyl}-acrylamide]
